Reference: US10993916B2, “Crystalline microparticles of a beta-agonist coated with a fatty acid” (Chiesi Farmaceutici S.p.A., priority 2011, dated 2021)

Columns and labels:
Assay type in all cases: physicochemical
[1] = Aerosol performances of the powder formulations (Next Generation Impactor, RS01/7 inhaler); conditions: dry powder with alpha-lactose monohydrate carrier, 6 μg drug to 10 mg carrier, mean±S.D.
Protocol: To prepare powder formulations, the microparticles of Example 1 FF-myr 0.5 and Ff-myr 2.0 were mixed in a Turbula mixer with alpha-lactose monohydrate having a mass diameter comprised between 90 and 150 μm as a carrier, to obtain a ratio of 6 μg of drug to 10 mg of carrier. […] Each powder was filled in hard HMPC gelatine capsules, in turn loaded in a RS01/7 unit dose inhaler (Plastiape, Italy).
The aerosol performances were evaluated using a Next Generation Impactor (NGI) according to the procedure described in European Pharmacopoeia 7th edition, 2011, part 2.9.18, pages 281-285. The results (mean±S.D.) in terms of delivered dose (DD), fine particle mass (FPM), fine particle fraction (FPF) and mass median aerodynamic diameter (MMAD), are reported in Table 3.

[2] = Aerosol performances of the pMDI formulations of formoterol fumarate microparticles (Next Generation Impactor); conditions: pMDI suspension in HFA134a, nominal dose 12 μg, mean±S.D.
Protocol: To prepare pMDI aerosol suspension formulations with a nominal dose of the active ingredient of 12 μg, the aluminum canisters were filled in a controlled atmosphere room, by successively introducing 2.4 mg the microparticles of Example 1 and then 10 ml pressurized HFA134a gas. The devices were fitted with a 50 μl APTAR valve and a Bespak actuator of 0.3 mm. For comparative purposes, a pMDI aerosol suspension formulations comprising micronized formoterol fumarate dihydrate was also prepared. The sedimentation rate was determined using a Turbiscan apparatus (Formulaction SA, France).
(§1) The pMDI formulations were also characterized in terms of aerosol performances. They were assessed using a Next Generation Impactor to according to the procedure described in the European Pharmacopoeia 7th edition, 2011, part 2.9.18.
(§2) Quantification of formoterol fumarate dihydrate (FF) was performed using a HPLC method. The following parameters were determined: • i) delivered dose (DD) is calculated from the cumulative deposition in the […], divided by the number of actuations per experiment; • ii) fine particle mass (FPM) is obtained by interpolation of the cumulative percentage undersize of drug mass deposition versus cut off diameter. The FPM corresponds to particles of diameter ≤5.0 microns, divided by the number of actuations per experiment. • iii) respirable fraction (fine particle fraction=FPF) which is the percent ratio between the fine particle mass and the delivered dose. • iv) mass median aerodynamic diameter (MMAD) which is the diameter around which the mass aerodynamic diameters of the emitted particles are distributed equally;

[3] = Aerosol performances of the pMDI formulations of salmeterol xinafoate microparticles (Next Generation Impactor); conditions: pMDI suspension in HFA134a, FEP-coated canisters, nominal dose 25 μg, mean±S.D.
Protocol: as §1, §2
To prepare pMDI aerosol suspension formulations with a nominal dose of the active ingredient of 25 μg, canisters coated with FEP were filled in a controlled atmosphere room, by successively introducing 3.0 mg the microparticles of Example 5 and then 6 ml pressurized HFA134a gas. The devices were fitted with a 50 μl APTAR valve and a Bespak actuator of 0.3 mm. For comparative purposes, a pMDI aerosol suspension formulations comprising micronized salmeterol xinafoate was also prepared. The pMDI formulations were characterized in terms of aerosol performances. They were assessed as described in Example 3.

With `COc1ccc(CC(C)NCC(O)c2ccc(O)c(NC=O)c2)cc1.COc1ccc(CC(C)NCC(O)c2ccc(O)c(NC=O)c2)cc1.O.O.O=C(O)/C=C/C(=O)O` (stereo not drawn) [FF raw material, formoterol fumarate dihydrate] the “DD (delivered dose)” value [1] was 73 ± 0.02 µg, the “FPF (fine particle fraction)” value [1] was 14.03 ± 0.82% and the “FPM (fine particle mass)” value [1] was 0.71 ± 0.04 µg. The “MMAD (mass median aerodynamic diameter)” value [1] was 2.36 ± 0.05 μm, the “DD (delivered dose)” value [2] was 8.34 ± 0.32 µg and the “FPF (fine particle fraction, respirable fraction)” value [2] was 81.9 ± 2.9%. The “FPM (fine particle mass, ≤5.0 microns)” value [2] was 6.84 ± 0.51 µg and the “MMAD (mass median aerodynamic diameter)” value [2] was 1.92 ± 0.00 μm.
With `OCc1cc(C(O)CNCCCCCCOCCCCc2ccccc2)ccc1O` (stereo not drawn) [SX raw, salmeterol xinafoate] the “DD (delivered dose)” value [3] was 14.28 ± 1.72 µg, the “FPF (fine particle fraction)” value [3] was 29.74 ± 1.75% and the “FPM (fine particle mass)” value [3] was 4.23 ± 0.25 µg. For the same compound, the “MMAD (mass median aerodynamic diameter)” value [3] was 2.79 ± 0.39 μm.
